Key:
[1] = test system: MCF10A EditR cells; assay: Pooled genome-wide CRISPR/Cas9 screen with XL413 (cell proliferation, sgRNA abundance, MAGeCK beta scores); format: cell-based, human; conditions: for XL413 beta score: 1.25 μM XL413, day 0 to day 24; for Differential beta score (Treatment − Control): XL413-treated minus untreated
Protocol: Supplemental FIG. 1: CRISPR/Cas9 screen: Cell proliferation curves, summary of sgRNA coverage, and genes of interest identified (a-c) Proliferation curves of MCF10A EditR cells expressing sgRNAs from CRISPR library modules I, II and III in the absence (untreated) or presence of 1.25 μM XL413. Data is from three independent counts of each sample ±standard deviation (SD). (d) DNA extracted from samples of the CRISPR/Cas9 screen, which were harvested on day 0 and after 20 or 24 days of growth in the absence (untreated) or presence of 1.25 μM XL413, respectively, was analysed by next generation sequencing. Sequence data was mapped to a CELLECTA genome-wide sgRNA reference library using the MAGeCKFlute pipeline. (d) The table summarises the total and missing number of sgRNAs, the calculated % sgRNA coverage and the number of missing genes.
A genome-wide CRIPSR/Cas9 loss of function screen identifies genes that affect proliferation rate in response to a CDC7 inhibitor In order to identify genes that change the rate of proliferation when DNA synthesis is mildly limited by CDC7 inhibition, we performed a CRISPR/Cas9 genome-wide knockout screen as outlined in FIG. 1a. Briefly, MCF10A EditR cells that stably express Cas9 were transduced with a lentiviral-sgRNA library targeting approximately 19,000 coding genes and then were either untreated or treated with 1.25 μM of selective ATP competitive CDC7 inhibitor, XL413 (Koltun et al., 2012). […] Next generation sequencing was then used to determine sgRNA abundance at day 0, day 20 untreated and day 24 XL413 treated cells. […] CRISPR/Cas9-mediated loss of function of genes involved in supporting proliferation in untreated cells or in response to CDC7 inhibition is expected to result in a decreased relative abundance of the corresponding sgRNAs in the cell population. […] When the genes were ranked according to the magnitude of the effect, CDK8, a gene that expresses a component of the CDK8/CDK19-CCNC-MED12-MED 13 mediator complex kinase-module (Dannappel et al., 2019; Fant and Taatjes, 2019; Menzl et al., 2019), came out as the top hit (FIG. 1b and Table 1, ranked 19012 out of 19012 genes).
MCF10A EditR cells (120×10^6 per module) were transduced with individual modules (Modules I, II and III) in the presence of 5 µg/ml polybrene at a Multiplicity of Infection (MoI) of 0.4 achieving ˜600-fold guide representation. After 24 hours, transduced cells were harvested, replated and selected with puromycin ([…]) for 6 days. Puromycin resistant cells were harvested and a sample of ˜30×10^6 cells taken for analysis by next generation sequencing (NGS) at the start of the screen (day 0). The remaining puromycin resistant cells from each module were cultured independently from each other in untreated and XL413 treated ([…]) experimental branches. Throughout the screen cell proliferation and viability were determined by cell counting on a LunaII automated cell counter (Logos Biosystems) using trypan blue exclusion. Cells were cultured, harvested, reseeded and retreated every 4 days in order to maintain ˜600-fold guide representation. Finally at day 20 for the untreated branch and at day 24 for the XL413-treated branche, cells were harvested and a sample of ˜30×10^6 cells taken for analysis by NGS.
FASTQ files obtained by NGS were analysed using the MAGeCKFlute pipeline (Wang et al., 2019) as outlined below. MAGeCK was used to perform adaptor trimming, mapping of trimmed sgRNAs and associated sequencing reads to the CELLECTA sgRNA reference library, and a quality control assessment of the sequencing quality and screen data. Following quality control inspection, sgRNA read count data from the day 0 vs day 20 untreated and day 0 vs day 24 XL413-treated (1.25 μM) conditions were modelled using a negative-binomial distribution by MAGeCK-MLE to calculate a beta score for each targeted gene. Negative control sgRNAs in the CELLECTA library were used by MAGeCK-MLE to normalize the read counts between samples. […]

[2] = test system: MCF10A cells; assay: Long-term cell proliferation assay, crystal violet staining; format: cell-based, human; conditions: 7 days
Protocol: (a and b) MCF10A cells were plated at equal low density and then either mock treated or treated with 31 nM BI-1347, in the presence or absence of XL413 at a doses of (a) 1.25 μM or (b) 10 μM over a 7 day period. Representative images of crystal violet-stained cells are shown alongside quantitation of crystal violet intensity normalised to the untreated control.
Briefly, MCF10A cells were mock-treated or treated in the continued presence of a dual-specificity CDK8/CDK19 inhibitor, BI-1347, in the presence or absence of XL413 at two different concentrations (1.25 μM and 10 μM) for a 7-day period. Relative cell proliferation was estimated by staining cells with crystal violet and measuring staining intensities. […] Importantly the addition of BI-1347 to XL413 caused a further reduction in cell number with staining intensity decreasing by 70% and 95% respectively.
MCF10A cells were seeded at 4,000 cells per well of a 6 well plate and after 24 hours were treated with inhibitors before being incubated for 7 days at 37° C. with 5% CO2. Media was removed from the cells which were then washed with PBS and air dried before being fixed with 100% methanol for 1 hour. Following removal of methanol the plates were air-dried, stained with crystal violet staining solution (0.2% crystal violet, 25% methanol) for 1 hour at room temperature, washed with ddH2O and air-dried. Plates were scanned using a HP Scanjet 4050, to generate images of crystal violet stained cells, and crystal violet staining intensity was acquired using the Odyssey infrared imaging system and Image Studio software (LI-COR Biosciences).

Structure (SMILES): Cl.O=c1[nH]c([C@@H]2CCCN2)nc2c1oc1ccc(Cl)cc12 [XL413]
- cell proliferation over the course of the screen ([1]; 1.25 μM XL413, cells expressing sgRNA library): only mildly suppressed
- XL413 beta score ([1]; gene CCNC targeted by sgRNAs): −1.0759
- Differential beta score (Treatment − Control) ([1]; gene CCNC targeted by sgRNAs): −0.3602
- XL413 beta score ([1]; gene CDK8 targeted by sgRNAs): −1.6094
- Differential beta score (Treatment − Control) ([1]; gene CDK8 targeted by sgRNAs): −1.4391
- XL413 beta score ([1]; gene CDK19 targeted by sgRNAs): −0.2393
- Differential beta score (Treatment − Control) ([1]; gene CDK19 targeted by sgRNAs): 0.0034
- XL413 beta score ([1]; gene MED12 targeted by sgRNAs): −0.8276
- Differential beta score (Treatment − Control) ([1]; gene MED12 targeted by sgRNAs): 0.0928
- XL413 beta score ([1]; gene MED13 targeted by sgRNAs): 0.0939
- Differential beta score (Treatment − Control) ([1]; gene MED13 targeted by sgRNAs): 0.0062
- XL413 beta score ([1]; gene RIF1 targeted by sgRNAs): −0.0162
- Differential beta score (Treatment − Control) ([1]; gene RIF1 targeted by sgRNAs): 0.7442
- relative intensity reduction (crystal violet) ([2]; 1.25 μM XL413 alone): ~15%
- relative intensity reduction (crystal violet) ([2]; 10 μM XL413 alone): 70%
